Consider one molecule from US10576085B2, “Substituted aminopurine compounds, compositions thereof, and methods of treatment therewith” (Signal Pharmaceuticals, LLC, priority 2016, dated 2020).

pIC50: −log10 of the molar value.

For assay [1], the system named is TEAD reporter activity (YAP/TAZ responsive synthetic promoter). The assay is described as follows: TEAD reporter assay, 8×GTIIC-luciferase WI38 VA13 cells. The note with it: Homo sapiens, WI-38 VA13; 24 hour assay; cumulative data of three experiments. It is filed as cell-based. The protocol: TEAD reporter activity was analyzed using WI38 VA13 cells stably expressing a YAP/TAZ responsive synthetic promoter driving luciferase expression (8×GTIIC-luciferase). 10,000 cells per well were seeded on a white-walled 96-well plate and left overnight. After 16-20 hours, cells were treated with compound and TEAD reporter activity was measured 24 or 72 hours later using Bright Glo luciferase assay (Promega) according to the manufacturers instructions. This assay was performed 3 times for Compound 1 and twice for Trametinib.

For a further assay, the system named is PD-L1. The assay is described as follows: PD-L1 expression, Western blot, KARPAS-299. Conditions: KARPAS-299, Western blot. It is filed as cell-based. As to the method:
(§1) The effect of Compound 1 was evaluated on PD-L1 expression levels. Cells were cultured in presence or absence of Compound 1 for indicated time before expression levels of PD-L1, DUSP4 and α-tubulin or α-actin were measured by Western blot. To detect surface levels of PD-L1, cells were treated with DMSO or Compound 1 at indicated concentrations for 48 h and cell surface expression of PD-L1 was detected using flow cytometry analysis (FACS) with an APC-labeled antibody to PD-L1 (clone 29E.1A3; BioLegend, San Diego, Calif.). Geometric mean of PD-L1 positive cells was determined by FlowJo 10 (Treestar, Ashland, Oreg.).

For another assay, the system named is SW620. Put plainly: Proliferation, CellTiter-Glo, 72 h. It is filed as cell-based. Conditions: SW620, Colon.
The test system of a further assay is surface PD-L1. Put plainly: Cell surface PD-L1, FACS, multiple cancer cell lines. Type of assay: cell-based. The note with it: 48 h. The protocol:
as §1

A further assay addresses NLK (Homo sapiens, UniProt Q9UBE8). Put plainly: Known kinases inhibited (no method given). It is filed as biochemical.
The subject of another assay is MAPK, β-catenin, and YAP. The assay is described as follows: MAPK, WNT/β-catenin, Hippo/YAP pathway markers (Western blot, qPCR) in SW48. Type of assay: cell-based. The protocol: Compound 1 modulation of MAPK, WNT/β-catenin, and Hippo/YAP pathway markers was evaluated by standard Western blotting. LOX-IMVI, SW48, and Colo-205 cells were plated in 6-well plates at a density of 250,000 cells per well and were allowed to attach overnight. Compound 1 was added to cells at concentrations of 0.03, 0.1, 0.3, 1, and 3 μM for durations of 2, 8, and 24 hours. […] The cell lysates were heated in sodium dodecyl sulfate (SDS)-sample buffer and 40 μg of cell lysate per condition were loaded onto gels and separated using SDS polyacrylamide gel electrophoresis (PAGE). Protein was transferred to nitrocellulose membrane, and immunoblotted with anti DUSP4, DUSP6, cMyc, Cyclin D1, YAP, AXIN2, HDACS (phospho S498), and β-actin antibodies. Membranes were scanned on the Licor Odyssey system.
Compound 1 modulation of MAPK, WNT/β-catenin, and Hippo/YAP pathway genes was evaluated by real-time (RT)-qPCR. […], SW48, and Colo-205 cells were plated in 96-well plates at a density of 20,000 cells per well and were allowed to attach overnight. Compound 1 was added to cells at half log concentrations from 1 nM to 10 μM for durations of 2, 8, and 24 hours. Cells were harvested using the TaqMan Gene Expression Cells-to-CT Kit according to the product manual. […]

A further assay addresses ERK 1/2. The assay is described as follows: Known kinases inhibited (no method given). It is filed as biochemical.

Sequence of NLK (Q9UBE8 whole entry): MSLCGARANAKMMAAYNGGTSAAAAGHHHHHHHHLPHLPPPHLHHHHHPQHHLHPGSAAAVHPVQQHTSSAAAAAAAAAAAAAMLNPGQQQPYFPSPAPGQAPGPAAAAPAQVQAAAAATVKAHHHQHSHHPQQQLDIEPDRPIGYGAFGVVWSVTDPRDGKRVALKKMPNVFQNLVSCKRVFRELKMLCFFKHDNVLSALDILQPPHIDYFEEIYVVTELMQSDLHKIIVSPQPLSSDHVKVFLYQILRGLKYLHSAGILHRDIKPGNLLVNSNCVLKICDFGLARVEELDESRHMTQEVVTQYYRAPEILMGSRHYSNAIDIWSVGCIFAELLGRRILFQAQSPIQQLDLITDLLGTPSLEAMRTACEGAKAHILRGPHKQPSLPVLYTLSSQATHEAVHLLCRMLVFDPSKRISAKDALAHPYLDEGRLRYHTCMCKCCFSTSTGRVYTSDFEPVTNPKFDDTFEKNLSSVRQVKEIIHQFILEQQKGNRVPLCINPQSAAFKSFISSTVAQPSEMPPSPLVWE

Turning to `C[C@]1(C(N)=O)CC[C@@H](n2c(Nc3c(Cl)cc(Cl)cc3Cl)nc3cnc(N[C@@H]4CCOC[C@H]4F)nc32)CC1` [Compound 1, cis-4-[2-{[(3S,4R)-3-fluorooxan-4-yl]amino}-8-(2,4,6-trichloroanilino)-9H-purin-9-yl]-1-methyl cyclohexane-1-carboxamide], the values for the pIC50 (in assay [1]; in the assay with SW620) were under 5.00 and 7.04, respectively. Moreover, the PD-L1 expression entry in the assay on PD-L1 was “directly inhibits PD-L1 expression”. This molecule also came in with a GI50 in the assay on SW620 of 0.0474 µM. Further, in the assay with surface PD-L1, the “Surface PD-L1 levels” value was “inhibited”. The Kinase inhibition result at NLK and on ERK 1/2 was “inhibited” each time. In the assay on MAPK, β-catenin, and YAP (BRAF and CTNNB1 mutant cell line SW48 (FIG. 20)), the “Modulation of MAPK, β-catenin, and YAP” value is “modulates MAPK, β-catenin, and YAP”. Besides, the “Target gene expression controlled by MAPK, β-catenin, and YAP” value in the assay with MAPK, β-catenin, and YAP (SW48 (FIGS. 21A-21B)) is on record as “modulates target gene expression”.
